Assay results from PMC10924921, “Mi-2β promotes immune evasion in melanoma by activating EZH2 methylation” (Nature Communications, 2024).

What was measured:
Experiment in all cases: biochemical
Design in all cases: KINOMEscan active-site competition binding panel (468 kinase assays), per cent of control at 1000 nM
Settings in all cases: KINOMEscan per cent of control (binding competition); read-out: Percent Control
TNK2 = TNK2 (Homo sapiens, UniProt Q07912)
Description: (§1) Figure S7 / Percent Control

DYRK1B = DYRK1B (Homo sapiens, UniProt Q9Y463)
Description: as §1

[1] = molecular target: T1, JAK1(JH1domain-catalytic) (Homo sapiens, UniProt P23458)
T1 construct: JH1domain-catalytic
Description: as §1

IKK-alpha = molecular target: T2, IKK-alpha (Homo sapiens, UniProt O15111)
T2 construct: gene CHUK
Description: as §1

S6K1 = molecular target: T3, S6K1 (Homo sapiens, UniProt P23443)
T3 construct: gene RPS6KB1
Description: as §1

SNRK = SNRK (Homo sapiens, UniProt Q9NRH2)
Description: as §1

ULK1 = ULK1 (Homo sapiens, UniProt O75385)
Description: as §1

PIK3CA(C420R) = PIK3CA(C420R) (Homo sapiens, UniProt P42336, C420R)
Description: as §1

DDR1 = DDR1 (Homo sapiens, UniProt Q08345)
Description: as §1

PIK3CA(H1047Y) = PIK3CA(H1047Y) (Homo sapiens, UniProt P42336, H1047Y)
Description: as §1

KIT-autoinhibited = KIT-autoinhibited (Homo sapiens, UniProt P10721)
Description: as §1

FGFR3 = FGFR3 (Homo sapiens, UniProt P22607)
Description: as §1

RIOK2 = RIOK2 (Homo sapiens, UniProt Q9BVS4)
Description: as §1

ABL1-phosphorylated = molecular target: T4, ABL1-phosphorylated (Homo sapiens, UniProt P00519)
T4 construct: phosphorylated
Description: as §1

CDK11 = molecular target: T5, CDK11 (Homo sapiens, UniProt Q9BWU1)
T5 construct: gene CDK19
Description: as §1

[2] = molecular target: T6, ABL1(Q252H)-nonphosphorylated (Homo sapiens, UniProt P00519, Q252H)
T6 construct: nonphosphorylated
Description: as §1

PLK2 = PLK2 (Homo sapiens, UniProt Q9NYY3)
Description: as §1

EPHA8 = EPHA8 (Homo sapiens, UniProt P29322)
Description: as §1

PRKX = PRKX (Homo sapiens, UniProt P51817)
Description: as §1

ERK8 = molecular target: T7, ERK8 (Homo sapiens, UniProt Q8TD08)
T7 construct: gene MAPK15
Description: as §1

TIE1 = TIE1 (Homo sapiens, UniProt P35590)
Description: as §1

CDKL1 = CDKL1 (Homo sapiens, UniProt Q00532)
Description: as §1

PYK2 = molecular target: T8, PYK2 (Homo sapiens, UniProt Q14289)
T8 construct: gene PTK2B
Description: as §1

MAP3K1 = MAP3K1 (Homo sapiens, UniProt Q13233)
Description: as §1

SRPK2 = SRPK2 (Homo sapiens, UniProt P78362)
Description: as §1

Chain of PRKX (P51817 whole entry): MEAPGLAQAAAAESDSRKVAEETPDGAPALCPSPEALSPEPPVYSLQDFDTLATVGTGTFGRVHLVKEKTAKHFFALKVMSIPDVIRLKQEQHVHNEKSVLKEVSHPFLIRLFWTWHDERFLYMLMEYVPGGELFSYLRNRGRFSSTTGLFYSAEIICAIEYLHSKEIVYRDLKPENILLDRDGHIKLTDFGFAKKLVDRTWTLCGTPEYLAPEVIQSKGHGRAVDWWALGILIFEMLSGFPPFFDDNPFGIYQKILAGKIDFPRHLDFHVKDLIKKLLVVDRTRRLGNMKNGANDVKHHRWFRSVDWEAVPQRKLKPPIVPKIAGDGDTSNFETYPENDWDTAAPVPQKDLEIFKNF
T5 sequence (Q9BWU1 whole entry): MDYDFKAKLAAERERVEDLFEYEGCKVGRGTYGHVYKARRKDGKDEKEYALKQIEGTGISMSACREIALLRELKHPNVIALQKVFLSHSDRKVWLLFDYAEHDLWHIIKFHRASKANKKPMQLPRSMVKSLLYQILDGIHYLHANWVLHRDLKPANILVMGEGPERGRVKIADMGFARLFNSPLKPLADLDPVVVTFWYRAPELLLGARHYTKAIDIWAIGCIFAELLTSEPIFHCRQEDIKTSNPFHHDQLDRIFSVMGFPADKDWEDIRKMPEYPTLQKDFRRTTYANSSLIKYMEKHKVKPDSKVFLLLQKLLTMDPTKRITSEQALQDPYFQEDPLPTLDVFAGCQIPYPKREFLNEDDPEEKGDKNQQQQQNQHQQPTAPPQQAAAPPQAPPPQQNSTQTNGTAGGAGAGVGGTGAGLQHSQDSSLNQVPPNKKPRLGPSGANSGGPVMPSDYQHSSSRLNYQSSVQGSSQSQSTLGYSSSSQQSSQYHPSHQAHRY
Chain of KIT-autoinhibited (P10721 whole entry): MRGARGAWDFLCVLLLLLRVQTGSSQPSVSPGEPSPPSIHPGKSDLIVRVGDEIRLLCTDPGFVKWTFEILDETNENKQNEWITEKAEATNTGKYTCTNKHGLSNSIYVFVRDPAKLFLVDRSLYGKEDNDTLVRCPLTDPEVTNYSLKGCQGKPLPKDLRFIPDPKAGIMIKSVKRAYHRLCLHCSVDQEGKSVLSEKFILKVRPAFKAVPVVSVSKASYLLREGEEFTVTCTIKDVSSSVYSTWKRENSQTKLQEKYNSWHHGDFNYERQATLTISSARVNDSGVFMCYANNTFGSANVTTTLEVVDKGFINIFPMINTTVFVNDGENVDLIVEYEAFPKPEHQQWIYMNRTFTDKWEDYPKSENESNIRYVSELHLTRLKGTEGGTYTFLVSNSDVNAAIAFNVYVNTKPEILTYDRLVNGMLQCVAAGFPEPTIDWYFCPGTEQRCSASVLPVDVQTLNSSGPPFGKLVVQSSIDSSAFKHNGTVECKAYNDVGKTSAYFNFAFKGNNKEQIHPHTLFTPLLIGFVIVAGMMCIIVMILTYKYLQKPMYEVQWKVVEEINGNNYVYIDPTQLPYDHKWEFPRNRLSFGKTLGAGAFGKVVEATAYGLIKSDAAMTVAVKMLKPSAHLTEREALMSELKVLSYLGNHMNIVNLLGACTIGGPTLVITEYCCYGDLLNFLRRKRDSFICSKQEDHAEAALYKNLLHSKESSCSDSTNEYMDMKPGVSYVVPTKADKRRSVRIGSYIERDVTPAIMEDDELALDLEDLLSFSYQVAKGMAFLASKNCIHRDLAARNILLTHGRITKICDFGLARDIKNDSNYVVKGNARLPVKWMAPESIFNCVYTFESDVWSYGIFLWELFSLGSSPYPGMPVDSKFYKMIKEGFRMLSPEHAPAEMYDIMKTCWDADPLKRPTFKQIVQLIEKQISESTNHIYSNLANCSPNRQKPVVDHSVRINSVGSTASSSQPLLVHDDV
Chain of FGFR3 (P22607 whole entry): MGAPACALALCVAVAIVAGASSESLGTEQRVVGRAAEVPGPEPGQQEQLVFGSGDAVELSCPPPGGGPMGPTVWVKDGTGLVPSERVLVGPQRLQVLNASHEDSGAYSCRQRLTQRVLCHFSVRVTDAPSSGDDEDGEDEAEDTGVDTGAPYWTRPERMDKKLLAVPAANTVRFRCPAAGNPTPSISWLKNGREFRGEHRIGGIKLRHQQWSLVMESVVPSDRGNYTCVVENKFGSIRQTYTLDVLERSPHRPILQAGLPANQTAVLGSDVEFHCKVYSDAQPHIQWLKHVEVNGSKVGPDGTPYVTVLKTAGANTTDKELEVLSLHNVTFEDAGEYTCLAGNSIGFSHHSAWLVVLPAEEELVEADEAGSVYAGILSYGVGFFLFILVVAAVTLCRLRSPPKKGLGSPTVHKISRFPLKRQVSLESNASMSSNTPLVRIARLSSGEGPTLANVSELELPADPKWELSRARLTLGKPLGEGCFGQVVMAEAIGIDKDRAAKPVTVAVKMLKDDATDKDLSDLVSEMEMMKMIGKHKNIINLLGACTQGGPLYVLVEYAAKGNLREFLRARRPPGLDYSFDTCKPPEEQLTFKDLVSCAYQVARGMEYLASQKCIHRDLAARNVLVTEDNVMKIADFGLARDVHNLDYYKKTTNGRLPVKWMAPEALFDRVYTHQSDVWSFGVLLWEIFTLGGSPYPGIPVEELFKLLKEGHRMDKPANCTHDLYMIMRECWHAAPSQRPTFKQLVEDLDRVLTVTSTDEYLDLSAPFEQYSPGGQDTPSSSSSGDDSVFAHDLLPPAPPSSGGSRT
Chain of TIE1 (P35590 whole entry): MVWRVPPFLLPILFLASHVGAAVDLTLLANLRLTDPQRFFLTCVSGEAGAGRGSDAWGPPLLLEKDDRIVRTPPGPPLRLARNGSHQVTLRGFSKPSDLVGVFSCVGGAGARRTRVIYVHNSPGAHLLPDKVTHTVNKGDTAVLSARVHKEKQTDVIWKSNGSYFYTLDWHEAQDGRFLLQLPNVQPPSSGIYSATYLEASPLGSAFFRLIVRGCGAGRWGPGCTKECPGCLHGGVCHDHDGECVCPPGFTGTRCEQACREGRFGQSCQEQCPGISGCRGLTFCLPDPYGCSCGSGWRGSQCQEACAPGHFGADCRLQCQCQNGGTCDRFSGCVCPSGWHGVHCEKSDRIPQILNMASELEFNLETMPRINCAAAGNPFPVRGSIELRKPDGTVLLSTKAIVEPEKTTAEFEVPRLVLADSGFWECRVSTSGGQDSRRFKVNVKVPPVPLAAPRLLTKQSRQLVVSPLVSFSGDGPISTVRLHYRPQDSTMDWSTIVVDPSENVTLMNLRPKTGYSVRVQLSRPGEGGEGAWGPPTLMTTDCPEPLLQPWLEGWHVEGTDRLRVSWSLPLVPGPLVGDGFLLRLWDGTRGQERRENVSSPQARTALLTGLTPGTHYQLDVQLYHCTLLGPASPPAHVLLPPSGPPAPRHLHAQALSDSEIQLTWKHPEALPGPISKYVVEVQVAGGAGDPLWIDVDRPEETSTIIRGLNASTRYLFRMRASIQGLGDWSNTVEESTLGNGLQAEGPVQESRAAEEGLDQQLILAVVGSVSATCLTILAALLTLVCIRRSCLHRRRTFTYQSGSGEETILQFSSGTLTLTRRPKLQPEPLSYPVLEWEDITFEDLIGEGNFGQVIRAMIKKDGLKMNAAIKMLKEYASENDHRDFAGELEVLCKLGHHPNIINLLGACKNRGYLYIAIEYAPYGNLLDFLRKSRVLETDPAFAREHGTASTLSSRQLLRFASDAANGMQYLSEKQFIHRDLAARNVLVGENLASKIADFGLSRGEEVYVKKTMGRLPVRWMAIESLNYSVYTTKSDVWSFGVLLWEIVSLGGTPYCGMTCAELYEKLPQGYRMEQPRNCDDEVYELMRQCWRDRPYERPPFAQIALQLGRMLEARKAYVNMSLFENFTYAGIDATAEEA
Chain of EPHA8 (P29322 whole entry): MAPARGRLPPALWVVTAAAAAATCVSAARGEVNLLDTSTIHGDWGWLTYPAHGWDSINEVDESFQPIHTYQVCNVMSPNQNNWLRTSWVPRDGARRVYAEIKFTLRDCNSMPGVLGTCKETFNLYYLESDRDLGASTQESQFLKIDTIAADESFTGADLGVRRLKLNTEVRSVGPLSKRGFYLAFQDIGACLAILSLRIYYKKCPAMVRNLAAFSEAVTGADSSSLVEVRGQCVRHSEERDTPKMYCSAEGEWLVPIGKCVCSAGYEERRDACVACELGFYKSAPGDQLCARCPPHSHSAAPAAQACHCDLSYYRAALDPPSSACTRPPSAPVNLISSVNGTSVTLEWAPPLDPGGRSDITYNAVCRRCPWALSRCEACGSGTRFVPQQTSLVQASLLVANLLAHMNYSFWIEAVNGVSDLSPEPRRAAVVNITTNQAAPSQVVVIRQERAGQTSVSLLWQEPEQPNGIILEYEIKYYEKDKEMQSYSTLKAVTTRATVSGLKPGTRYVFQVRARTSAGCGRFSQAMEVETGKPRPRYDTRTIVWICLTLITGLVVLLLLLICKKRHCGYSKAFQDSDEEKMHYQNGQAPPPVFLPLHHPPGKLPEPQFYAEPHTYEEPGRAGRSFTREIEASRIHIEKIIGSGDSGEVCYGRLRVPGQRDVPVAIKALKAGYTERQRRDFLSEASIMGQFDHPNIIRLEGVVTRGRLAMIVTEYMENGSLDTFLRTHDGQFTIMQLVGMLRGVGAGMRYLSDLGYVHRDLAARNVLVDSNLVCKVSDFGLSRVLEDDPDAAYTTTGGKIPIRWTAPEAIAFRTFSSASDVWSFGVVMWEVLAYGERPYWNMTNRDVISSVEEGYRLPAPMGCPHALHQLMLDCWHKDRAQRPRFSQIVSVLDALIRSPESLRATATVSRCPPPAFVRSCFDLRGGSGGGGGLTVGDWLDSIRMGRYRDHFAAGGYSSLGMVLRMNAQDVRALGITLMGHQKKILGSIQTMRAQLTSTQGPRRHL

Molecule `Cn1c(=O)[nH]c2ccc(-c3cccc(C(=O)NC4CCn5ccnc5C4)c3)cc21` (stereo not shown) [Z36-MP5] has a remaining binding at 1 µM (TNK2) of 41%, a remaining binding at 1 µM (DYRK1B) of 86% and a remaining binding at 1 µM [1] of 96%. For the same molecule, the remaining binding at 1 µM (IKK-alpha) was 80%, the remaining binding at 1 µM (S6K1) was 50% and the remaining binding at 1 µM (SNRK) was 78%. The remaining binding at 1 µM (ULK1) was 51%, the remaining binding at 1 µM (PIK3CA(C420R)) was 91% and the remaining binding at 1 µM (DDR1) was 88%. The remaining binding at 1 µM (PIK3CA(H1047Y)) was 91%, the remaining binding at 1 µM (KIT-autoinhibited) was 57% and the remaining binding at 1 µM (FGFR3) was 84%. The remaining binding at 1 µM (RIOK2) was 84%, the remaining binding at 1 µM (ABL1-phosphorylated) was 51% and the remaining binding at 1 µM (CDK11) was 82%. It also gave a remaining binding at 1 µM [2] of 84%, a remaining binding at 1 µM (PLK2) of 55% and a remaining binding at 1 µM (EPHA8) of 75%. It also gave a remaining binding at 1 µM (PRKX) of 38%, a remaining binding at 1 µM (ERK8) of 83% and a remaining binding at 1 µM (TIE1) of 97%. For the same molecule, the remaining binding at 1 µM (CDKL1) was 41%, the remaining binding at 1 µM (PYK2) was 93% and the remaining binding at 1 µM (MAP3K1) was 54%. For the same molecule, the remaining binding at 1 µM (SRPK2) was 63%.
